For 22 compounds, Ki results are on record in patent US8748624B2, “Picolinamido-propanoic acid derivatives useful as glucagon receptor antagonists” (Janssen Pharmaceutica NV, priority 2011, dated 2014).

Experiment [1] deals with human glucagon receptor (GCGR) (Homo sapiens (Human), UniProt P47871). The experiment can be described thus: Inhibition of 125I-glucagon binding to membranes from HEK293 cells expressing the human glucagon receptor. As for the experimental part: Inhibition ^125I-Glucagon Binding to Membranes from HEK293 Cells Expressing the Human Glucagon Receptor (GCGR)
Full-length human GCGR (Accession Number: NM000160) subcloned into pcDNA3.1 was stably transfected into HEK293 cells (hGluc-1 HEK) and maintained under G418 selection (500 μg/mL). Cell cultures were maintained in DMEM/F12 media supplemented with 10% FBS and 1% GlutaMax. Membranes were prepared from these cells as follows: cells were harvested from T225 flasks and re-suspended in hypotonic lysis buffer, 50 mM HEPES pH 7.4 supplemented with Complete Protease inhibitors (Boehringer Mannheim, Indianapolis, Ind.). Cells were dounced 20 times on ice and spun at 700×g to remove nuclei and unlysed cells. The resulting pellet was re-suspended in hypotonic lysis buffer and the above step was repeated. Supernatants from the low speed centrifugation were combined and subsequently spun at 100K×g for 1 hr at 4° C. and the resulting pellet was re-suspended in buffer containing 50 mM HEPES pH 7.4 and 10% sucrose and the protein concentration was adjusted at 1 mg/mL as determined in the BCA assay. Membranes were aliquoted and stored at −80° C. The binding assay was performed by a filtration method in a 384 well format. Membranes at a final protein concentration of 6 μg/well were incubated with ^125I-glucagon at 0.3 nM and in the presence of compound for 2 hours at room temperature in a total reaction volume of 40 μL per well. Assay buffer consisted of 50 mM HEPES, pH 7.4, 5 mM MgCl2, 1 mM CaCl2 and 0.2% BSA. 30 μL of the reaction was then transferred to PEI treated filter plates and followed by filter aspiration. Plates were then washed 5× and allowed to dry at room temperature overnight. The next day the bottom of the plate was covered with seal tape and scintillant was added. Total counts retained by the filters were quantified with a Top Count instrument. IC50's were generated by using a non-linear regression macro driven in Excel and converted to K's.

The next experiment addresses human GCGR (Homo sapiens (Human), UniProt P47871). The experiment can be described thus: Cellular functional assay, cAMP readout (glucagon-stimulated cAMP in HEK293 cells expressing human GCGR). The class given is cell-based. Particulars: hGluc-1 HEK cells, LANCE TR-FRET, IC50 converted to Ki, average if tested more than once. In outline: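 HEK293 cells stably transfected with full-length human GCGR were exposed to compound for 30 min before a 5-min challenge with […] (final) glucagon. Readout was TR-FRET (LANCE) cAMP versus standard curve; IC50s fitted by non-linear regression and converted to Ki values.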

The mark [2] stands for this setting: membranes of hGluc-1 HEK cells, 125I-glucagon 0.3 nM, 2 hours room temperature, IC50 converted to Ki, average if tested more than once.

What is called Ki is the dissociation constant of the complex between target and ligand, obtained from inhibition or displacement.

Read-outs that look alike come from different tables or passages of the source.

Sequence of human glucagon receptor (GCGR) (P47871 26-477): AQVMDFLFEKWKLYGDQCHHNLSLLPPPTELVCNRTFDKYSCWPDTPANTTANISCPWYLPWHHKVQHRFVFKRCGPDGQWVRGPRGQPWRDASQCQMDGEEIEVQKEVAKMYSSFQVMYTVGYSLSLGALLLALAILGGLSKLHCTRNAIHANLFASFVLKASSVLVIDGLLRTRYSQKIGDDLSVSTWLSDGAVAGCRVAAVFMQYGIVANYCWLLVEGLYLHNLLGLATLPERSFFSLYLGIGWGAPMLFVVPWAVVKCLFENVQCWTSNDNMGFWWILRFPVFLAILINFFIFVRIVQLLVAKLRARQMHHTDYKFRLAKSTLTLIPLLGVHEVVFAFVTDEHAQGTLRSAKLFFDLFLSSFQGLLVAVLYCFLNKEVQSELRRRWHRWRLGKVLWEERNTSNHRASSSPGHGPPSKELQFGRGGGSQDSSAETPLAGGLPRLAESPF
Sequence of human GCGR (P47871 26-477): as above

For the compound `O=C(O)CCNC(=O)c1ccc(-c2cc(C(F)(F)F)ccc2CNc2ccc(-c3ccc(F)cc3Cl)c(Cl)c2)cn1` [Compound 33, 3-(5-(2-(((2,2′-dichloro-4′-fluoro-[1,1′-biphenyl]-4-yl)amino)methyl)-5-(trifluoromethyl)phenyl)picolinamido)propanoic acid], the Ki in experiment [1] (setting [2]) turned out to be 0.0213 µM; at human GCGR, 0.0598 µM.

Consider `Cc1cc(Cl)ccc1-c1ccc(NCc2ccc(C(F)(F)F)cc2-c2ccc(C(=O)NCCC(=O)O)nc2)cc1Cl` [Compound 34, 3-(5-(2-(((2,4′-dichloro-2′-methyl-[1,1′-biphenyl]-4-yl)amino)methyl)-5-(trifluoromethyl)phenyl)picolinamido)propanoic acid], for which the Ki was 0.0238 µM in experiment [1] (setting [2]) and 0.0171 µM at human GCGR.

For the compound `O=C(O)CCNC(=O)c1ccc(-c2cc(C(F)(F)F)ccc2CNc2ccc(-c3ccc(F)c(Cl)c3)c(Cl)c2)cn1` [Compound 35, 3-(5-(2-(((2,3′-dichloro-4′-fluoro-[1,1′-biphenyl]-4-yl)amino)methyl)-5-(trifluoromethyl)phenyl)picolinamido)propanoic acid], the Ki was found to be 0.0144 µM in experiment [1] (setting [2]) and 0.035 µM on human GCGR.

In the case of `O=C(O)CCNC(=O)c1ccc(-c2cc(Cl)ccc2C(=O)Nc2ccc(-c3ccc(F)cc3F)cc2)cn1` [Compound 36, 3-(5-(5-chloro-2-((2′,4′-difluoro-[1,1′-biphenyl]-4-yl)carbamoyl)phenyl)picolinamido)propanoic acid], the figures for the inhibition constant Ki (in experiment [1] (setting [2]); on human GCGR) were 0.0673 µM and 0.0951 µM, respectively.

For the compound `O=C(O)CCNC(=O)c1ccc(-c2cc(C(F)(F)F)ccc2CNc2ccc(-c3ccc(Cl)cc3F)c(Cl)c2)cn1` [Compound 37, 3-(5-(2-(((2,4′-dichloro-2′-fluoro-[1,1′-biphenyl]-4-yl)amino)methyl)-5-(trifluoromethyl)phenyl)picolinamido)propanoic acid], the figures for the Ki (in experiment [1] (setting [2]); on human GCGR) were 0.0232 µM and 0.03 µM, respectively.

For `O=C(O)CCNC(=O)c1ccc(-c2cc(C(F)(F)F)ccc2CNc2ccc(-c3cccc(C(F)(F)F)c3Cl)c(Cl)c2)cn1` [Compound 38, 3-(5-(2-(((2,2′-dichloro-3′-(trifluoromethyl)-[1,1′-biphenyl]-4-yl)amino)methyl)-5-(trifluoromethyl)phenyl)picolinamido)propanoic acid], the figures for the Ki (in experiment [1] (setting [2]); at human GCGR) were 0.0225 µM and 0.0224 µM, respectively.

On to `O=C(O)CCNC(=O)c1ccc(-c2cc(C(F)(F)F)ccc2CNc2ccc(-c3ccc(C(F)(F)F)c(F)c3)c(Cl)c2)cn1` [Compound 39, 3-(5-(2-(((2-chloro-3′-fluoro-4′-(trifluoromethyl)-[1,1′-biphenyl]-4-yl)amino)methyl)-5-(trifluoromethyl)phenyl)picolinamido)propanoic acid], for which the figures for the Ki (in experiment [1] (setting [2]); on human GCGR) were 0.0266 µM and 0.0474 µM, respectively.

For the compound `O=C(O)CCNC(=O)c1ccc(-c2cc(C(F)(F)F)ccc2CNc2ccc(-c3ccc(Cl)cc3F)cc2)cn1` [Compound 40, 3-(5-(2-(((4′-chloro-2′-fluoro-[1,1′-biphenyl]-4-yl)amino)methyl)-5-(trifluoromethyl)phenyl)picolinamido)propanoic acid], the Ki in experiment [1] (setting [2]) is 0.0263 µM; at human GCGR, 0.0642 µM.

On to `O=C(O)CCNC(=O)c1ccc(-c2cc(C(F)(F)F)ccc2CNc2ccc(-c3cccc(C(F)(F)F)c3Cl)cc2)cn1` [Compound 41, 3-(5-(2-(((2′-chloro-3′-(trifluoromethyl)-[1,1′-biphenyl]-4-yl)amino)methyl)-5-(trifluoromethyl)phenyl)picolinamido)propanoic acid], for which the Ki in experiment [1] (setting [2]) turned out to be 0.0204 µM; at human GCGR it was 0.0283 µM.

Take `O=C(O)CCNC(=O)c1ccc(-c2cc(C(F)(F)F)ccc2CNc2ccc(-c3ccc(C(F)(F)F)cc3Cl)c(Cl)c2)cn1` [Compound 42, 3-(5-(2-(((2,2′-dichloro-4′-(trifluoromethyl)-[1,1′-biphenyl]-4-yl)amino)methyl)-5-(trifluoromethyl)phenyl)picolinamido)propanoic acid]: the Ki in experiment [1] (setting [2]) was found to be 0.0165 µM; on human GCGR, 0.02 µM.

Take `Cc1cc(C(F)(F)F)ccc1-c1ccc(NCc2ccc(C(F)(F)F)cc2-c2ccc(C(=O)NCCC(=O)O)nc2)cc1Cl` [Compound 43, 3-(5-(2-(((2-chloro-2′-methyl-4′-(trifluoromethyl)-[1,1′-biphenyl]-4-yl)amino)methyl)-5-(trifluoromethyl)phenyl)picolinamido)propanoic acid]: the Ki is 0.0172 µM in experiment [1] (setting [2]) and 0.0219 µM at human GCGR.

On to `O=C(O)CCNC(=O)c1ccc(-c2cc(C(F)(F)F)ccc2CNc2ccc(-c3ccc(Cl)cc3)cc2)cn1` [Compound 44, 3-(5-(2-(((4′-chloro-[1,1′-biphenyl]-4-yl)amino)methyl)-5-(trifluoromethyl)phenyl)picolinamido)propanoic acid], for which the inhibition constant (Ki) was determined as 0.0184 µM in experiment [1] (setting [2]) and 0.0601 µM on human GCGR.

For the compound `O=C(O)CCNC(=O)c1ccc(-c2cc(Cl)ccc2CNc2ccc(-c3ccc(Cl)cc3Cl)c(Cl)c2)cn1` [Compound 51, 3-(5-(5-chloro-2-(((2,2′,4′-trichloro-[1,1′-biphenyl]-4-yl)amino)methyl)phenyl)picolinamido)propanoic acid], the values for the Ki (in experiment [1] (setting [2]); at human GCGR) were 0.0168 µM and 0.0341 µM, respectively.

On to `O=C(O)CCNC(=O)c1ccc(-c2cc(F)ccc2CNc2ccc(-c3ccc(Cl)c(Cl)c3)c(F)c2)cn1` [Compound 53, 3-(5-(2-(((3′,4′-dichloro-2-fluoro-[1,1′-biphenyl]-4-yl)amino)methyl)-5-fluorophenyl)picolinamido)propanoic acid], for which the values for the Ki (in experiment [1] (setting [2]); at human GCGR) were 0.103 µM and 0.495 µM, respectively.

With `COc1cc(NCc2ccc(Cl)cc2-c2ccc(C(=O)NCCC(=O)O)nc2)ccc1-c1ccc(C(F)(F)F)cc1` [Compound 54, 3-(5-(5-chloro-2-(((2-methoxy-4′-(trifluoromethyl)-[1,1′-biphenyl]-4-yl)amino)methyl)phenyl)picolinamido)propanoic acid], the results for the Ki (in experiment [1] (setting [2]); on human GCGR) were 0.0485 µM and 0.22 µM, respectively.

As to `O=C(O)CCNC(=O)c1ccc(-c2cc(Cl)ccc2CNc2ccc(-c3ccc(Cl)c(Cl)c3)c(C(F)(F)F)c2)cn1` [Compound 55, 3-(5-(5-chloro-2-(((3′,4′-dichloro-2-(trifluoromethyl)-[1,1′-biphenyl]-4-yl)amino)methyl)phenyl)picolinamido)propanoic acid], the Ki in experiment [1] (setting [2]) was 0.157 µM; on human GCGR it was 0.65 µM.

For the compound `O=C(O)CCNC(=O)c1ccc(-c2cc(F)ccc2CNc2ccc(-c3ccc(C(F)(F)F)cc3)c(F)c2)cn1` [Compound 56, 3-(5-(5-fluoro-2-(((2-fluoro-4′-(trifluoromethyl)-[1,1′-biphenyl]-4-yl)amino)methyl)phenyl)picolinamido)propanoic acid], the Ki in experiment [1] (setting [2]) turned out to be 0.0988 µM; on human GCGR, 0.309 µM.

With `O=C(O)CCNC(=O)c1ccc(-c2cc(F)ccc2CNc2ccc(-c3ccc(Cl)cc3Cl)c(F)c2)cn1` [Compound 57, 3-(5-(2-(((2′,4′-dichloro-2-fluoro-[1,1′-biphenyl]-4-yl)amino)methyl)-5-fluorophenyl)picolinamido)propanoic acid], the Ki in experiment [1] (setting [2]) came out at 0.0742 µM; at human GCGR it was 0.205 µM.

Consider `O=C(O)CCNC(=O)c1ccc(-c2cc(Cl)ccc2CNc2ccc(-c3ccc(Cl)c(Cl)c3)cc2)cn1` [Compound 58, 3-(5-(5-chloro-2-(((3′,4′-dichloro-[1,1′-biphenyl]-4-yl)amino)methyl)phenyl)picolinamido)propanoic acid], for which the inhibitory constant (Ki) in experiment [1] (setting [2]) was determined as 0.0473 µM; at human GCGR, 0.0584 µM.

Consider `CC(C)(C)c1ccc(-c2ccc(NCc3ccc(Cl)cc3-c3ccc(C(=O)NCCC(=O)O)nc3)cc2)cc1` [Compound 59, 3-(5-(2-(((4′-(tert-butyl)-[1,1′-biphenyl]-4-yl)amino)methyl)-5-chlorophenyl)picolinamido)propanoic acid], for which the Ki amounted to 0.0724 µM in experiment [1] (setting [2]) and 0.32 µM on human GCGR.

On to `COc1ccc(-c2ccc(C(=O)NCCC(=O)O)nc2)c(CNc2ccc(-c3ccc(Cl)cc3Cl)cc2)c1` [Compound 60, 3-(5-(2-(((2′,4′-dichloro-[1,1′-biphenyl]-4-yl)amino)methyl)-4-methoxyphenyl)picolinamido)propanoic acid], for which the Ki came out at 0.194 µM in experiment [1] (setting [2]) and 1.37 µM at human GCGR.

Turning to `COc1ccc(-c2ccc(C(=O)NCCC(=O)O)nc2)c(CNc2ccc(-c3ccc(Cl)c(Cl)c3)cc2)c1` [Compound 61, 3-(5-(2-(((3′,4′-dichloro-[1,1′-biphenyl]-4-yl)amino)methyl)-4-methoxyphenyl)picolinamido)propanoic acid], the Ki in experiment [1] came to 0.0977 µM; at human GCGR, 0.479 µM.
